How the values were obtained:
AKT1 = AKT1 (Homo sapiens (Human), UniProt P31749); assay: Reaction Biology HotSpot kinase assay; type: biochemical; conditions: 500 nM compound; read-out: Percentage kinase inhibition AKT1
How it was run: (§1)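 Each compound was tested at 500 nM, with 33P incorporation from ATP (100 μM final, including [γ-33P]ATP) measured by P81 paper capture after a 2 h room-temperature reaction.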

ALK = ALK (Homo sapiens (Human), UniProt Q9UM73); assay: Reaction Biology HotSpot kinase assay; type: biochemical; conditions: 500 nM compound; read-out: Percentage kinase inhibition ALK
How it was run: (§2)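 HotSpot 33P transfer format. Enzyme, substrate and 500 nM test compound sit together for 20 min, then labelled and unlabelled ATP totalling 100 μM are added and phosphorylation proceeds for 2 h at room temperature. Products are captured on P81 cellulose paper, and activity is expressed relative to DMSO.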

AXL = AXL (Homo sapiens (Human), UniProt P30530); assay: Reaction Biology HotSpot kinase assay; type: biochemical; conditions: 500 nM compound; read-out: Percentage kinase inhibition AXL
How it was run: (§3)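 Phosphotransfer from [γ-33P]ATP was quantified after filter binding on P81 paper. Conditions: 20 mM HEPES pH 7.5, 10 mM MgCl2, 0.1 mM Na3VO4, 2 mM DTT, 0.02 mg/mL BSA; ATP 100 μM final; 2 h at room temperature. Compound was dosed at 500 nM.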

BRAF = BRAF (Homo sapiens (Human), UniProt P15056); assay: Reaction Biology HotSpot kinase assay; type: biochemical; conditions: 500 nM compound; read-out: Percentage kinase inhibition BRAF
How it was run: as §3

BTK = BTK (Homo sapiens (Human), UniProt Q06187); assay: Reaction Biology HotSpot kinase assay; type: biochemical; conditions: 500 nM compound; read-out: Percentage kinase inhibition BTK
Sequence of BTK (Q06187 whole entry): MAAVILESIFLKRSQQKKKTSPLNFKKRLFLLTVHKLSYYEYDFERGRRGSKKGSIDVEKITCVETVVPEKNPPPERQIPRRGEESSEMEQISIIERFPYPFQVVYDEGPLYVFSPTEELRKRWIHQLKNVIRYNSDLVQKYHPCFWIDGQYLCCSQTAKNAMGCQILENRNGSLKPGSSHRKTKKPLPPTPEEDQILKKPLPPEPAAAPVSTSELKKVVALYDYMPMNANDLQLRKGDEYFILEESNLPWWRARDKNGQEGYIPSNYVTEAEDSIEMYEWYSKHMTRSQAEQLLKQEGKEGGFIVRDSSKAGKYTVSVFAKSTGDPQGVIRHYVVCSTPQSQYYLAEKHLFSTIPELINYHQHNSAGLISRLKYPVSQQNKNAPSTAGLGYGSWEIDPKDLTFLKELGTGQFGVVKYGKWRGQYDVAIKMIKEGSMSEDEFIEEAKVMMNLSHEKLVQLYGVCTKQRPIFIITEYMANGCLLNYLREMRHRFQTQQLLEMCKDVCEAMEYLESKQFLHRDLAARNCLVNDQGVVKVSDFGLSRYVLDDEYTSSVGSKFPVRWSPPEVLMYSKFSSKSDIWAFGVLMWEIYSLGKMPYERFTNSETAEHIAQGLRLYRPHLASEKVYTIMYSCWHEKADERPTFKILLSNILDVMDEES
How it was run: as §2

EGFR = EGFR (Homo sapiens (Human), UniProt P00533); assay: Reaction Biology HotSpot kinase assay; type: biochemical; conditions: 500 nM compound; read-out: Percentage kinase inhibition EGFR
How it was run: as §2

EPHA5 = EPHA5 (Homo sapiens (Human), UniProt P54756); assay: Reaction Biology HotSpot kinase assay; type: biochemical; conditions: 500 nM compound; read-out: Percentage kinase inhibition EPHA5
How it was run: as §2

EPHB2 = EPHB2 (Homo sapiens (Human), UniProt P29323); assay: Reaction Biology HotSpot kinase assay; type: biochemical; conditions: 500 nM compound; read-out: Percentage kinase inhibition EPHB2
How it was run: as §2

ERBB2/HER2 = ERBB2/HER2 (Homo sapiens (Human), UniProt P04626); assay: Reaction Biology HotSpot kinase assay; type: biochemical; conditions: 500 nM compound; read-out: Percentage kinase inhibition ERBB2/HER2
How it was run: as §2

FGFR1 = FGFR1 (Homo sapiens (Human), UniProt P11362); assay: Reaction Biology HotSpot kinase assay; type: biochemical; conditions: 500 nM compound; read-out: Percentage kinase inhibition FGFR1
Sequence of FGFR1 (P11362 22-822): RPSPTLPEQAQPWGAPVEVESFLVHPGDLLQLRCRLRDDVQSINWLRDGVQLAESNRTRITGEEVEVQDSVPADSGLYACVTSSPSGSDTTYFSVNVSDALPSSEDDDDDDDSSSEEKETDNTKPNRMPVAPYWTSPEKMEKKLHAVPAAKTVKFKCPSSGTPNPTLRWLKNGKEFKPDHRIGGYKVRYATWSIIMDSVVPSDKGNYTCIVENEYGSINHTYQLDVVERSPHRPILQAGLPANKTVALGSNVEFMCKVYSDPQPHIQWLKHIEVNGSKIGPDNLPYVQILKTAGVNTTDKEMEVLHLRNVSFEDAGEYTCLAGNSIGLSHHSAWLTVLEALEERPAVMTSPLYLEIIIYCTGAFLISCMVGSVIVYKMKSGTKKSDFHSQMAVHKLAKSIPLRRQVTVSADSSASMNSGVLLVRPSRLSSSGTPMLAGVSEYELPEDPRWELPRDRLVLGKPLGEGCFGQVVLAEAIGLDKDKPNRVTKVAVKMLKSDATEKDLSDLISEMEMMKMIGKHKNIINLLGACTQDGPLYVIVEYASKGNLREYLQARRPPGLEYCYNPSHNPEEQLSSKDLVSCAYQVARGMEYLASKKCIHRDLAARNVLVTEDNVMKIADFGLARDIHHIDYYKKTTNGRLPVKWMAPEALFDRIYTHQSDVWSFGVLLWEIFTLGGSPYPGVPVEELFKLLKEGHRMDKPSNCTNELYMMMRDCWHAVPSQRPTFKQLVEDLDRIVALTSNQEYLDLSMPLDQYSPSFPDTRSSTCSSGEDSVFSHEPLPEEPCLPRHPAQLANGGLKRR
How it was run: as §1

FGR = FGR (Homo sapiens (Human), UniProt P09769); assay: Reaction Biology HotSpot kinase assay; type: biochemical; conditions: 500 nM compound; read-out: Percentage kinase inhibition FGR
How it was run: as §2

FLT1/VEGFR1 = FLT1/VEGFR1 (Homo sapiens (Human), UniProt P17948); assay: Reaction Biology HotSpot kinase assay; type: biochemical; conditions: 500 nM compound; read-out: Percentage kinase inhibition FLT1/VEGFR1
Sequence of FLT1/VEGFR1 (P17948 27-1338): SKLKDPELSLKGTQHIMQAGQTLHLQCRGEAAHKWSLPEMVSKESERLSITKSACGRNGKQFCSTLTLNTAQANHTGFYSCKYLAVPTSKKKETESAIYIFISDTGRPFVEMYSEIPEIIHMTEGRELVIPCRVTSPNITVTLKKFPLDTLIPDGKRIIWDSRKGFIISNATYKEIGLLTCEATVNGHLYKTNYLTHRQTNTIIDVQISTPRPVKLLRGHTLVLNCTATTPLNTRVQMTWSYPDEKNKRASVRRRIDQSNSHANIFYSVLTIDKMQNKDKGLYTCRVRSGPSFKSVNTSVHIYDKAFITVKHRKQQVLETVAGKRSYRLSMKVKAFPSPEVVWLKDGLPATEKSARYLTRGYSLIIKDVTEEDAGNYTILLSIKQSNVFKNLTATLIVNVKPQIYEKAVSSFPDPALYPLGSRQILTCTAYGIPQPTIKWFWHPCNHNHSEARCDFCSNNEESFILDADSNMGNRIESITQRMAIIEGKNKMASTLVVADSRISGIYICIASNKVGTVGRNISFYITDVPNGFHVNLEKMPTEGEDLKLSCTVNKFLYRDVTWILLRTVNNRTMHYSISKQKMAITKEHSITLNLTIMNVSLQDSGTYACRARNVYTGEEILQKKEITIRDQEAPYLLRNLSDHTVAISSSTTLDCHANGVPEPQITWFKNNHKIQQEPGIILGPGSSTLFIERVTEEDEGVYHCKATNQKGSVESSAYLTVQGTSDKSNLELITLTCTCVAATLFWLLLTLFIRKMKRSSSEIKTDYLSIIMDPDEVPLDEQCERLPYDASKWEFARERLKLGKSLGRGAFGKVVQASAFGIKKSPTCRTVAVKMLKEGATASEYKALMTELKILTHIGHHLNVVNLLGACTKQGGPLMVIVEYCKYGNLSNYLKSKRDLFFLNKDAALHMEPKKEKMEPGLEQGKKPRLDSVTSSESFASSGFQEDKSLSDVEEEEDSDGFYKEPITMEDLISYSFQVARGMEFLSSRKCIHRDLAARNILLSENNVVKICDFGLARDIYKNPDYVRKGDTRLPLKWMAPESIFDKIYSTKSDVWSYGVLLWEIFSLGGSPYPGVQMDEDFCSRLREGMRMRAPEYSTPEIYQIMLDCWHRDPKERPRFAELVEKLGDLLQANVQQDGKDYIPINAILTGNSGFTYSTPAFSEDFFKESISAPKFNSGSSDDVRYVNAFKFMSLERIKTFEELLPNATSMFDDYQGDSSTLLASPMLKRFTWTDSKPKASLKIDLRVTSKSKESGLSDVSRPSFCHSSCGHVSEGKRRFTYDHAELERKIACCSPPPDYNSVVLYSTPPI
How it was run: as §2

FLT3 = FLT3 (Homo sapiens (Human), UniProt P36888); assay: Reaction Biology HotSpot kinase assay; type: biochemical
Sequence of FLT3 (P36888 27-993): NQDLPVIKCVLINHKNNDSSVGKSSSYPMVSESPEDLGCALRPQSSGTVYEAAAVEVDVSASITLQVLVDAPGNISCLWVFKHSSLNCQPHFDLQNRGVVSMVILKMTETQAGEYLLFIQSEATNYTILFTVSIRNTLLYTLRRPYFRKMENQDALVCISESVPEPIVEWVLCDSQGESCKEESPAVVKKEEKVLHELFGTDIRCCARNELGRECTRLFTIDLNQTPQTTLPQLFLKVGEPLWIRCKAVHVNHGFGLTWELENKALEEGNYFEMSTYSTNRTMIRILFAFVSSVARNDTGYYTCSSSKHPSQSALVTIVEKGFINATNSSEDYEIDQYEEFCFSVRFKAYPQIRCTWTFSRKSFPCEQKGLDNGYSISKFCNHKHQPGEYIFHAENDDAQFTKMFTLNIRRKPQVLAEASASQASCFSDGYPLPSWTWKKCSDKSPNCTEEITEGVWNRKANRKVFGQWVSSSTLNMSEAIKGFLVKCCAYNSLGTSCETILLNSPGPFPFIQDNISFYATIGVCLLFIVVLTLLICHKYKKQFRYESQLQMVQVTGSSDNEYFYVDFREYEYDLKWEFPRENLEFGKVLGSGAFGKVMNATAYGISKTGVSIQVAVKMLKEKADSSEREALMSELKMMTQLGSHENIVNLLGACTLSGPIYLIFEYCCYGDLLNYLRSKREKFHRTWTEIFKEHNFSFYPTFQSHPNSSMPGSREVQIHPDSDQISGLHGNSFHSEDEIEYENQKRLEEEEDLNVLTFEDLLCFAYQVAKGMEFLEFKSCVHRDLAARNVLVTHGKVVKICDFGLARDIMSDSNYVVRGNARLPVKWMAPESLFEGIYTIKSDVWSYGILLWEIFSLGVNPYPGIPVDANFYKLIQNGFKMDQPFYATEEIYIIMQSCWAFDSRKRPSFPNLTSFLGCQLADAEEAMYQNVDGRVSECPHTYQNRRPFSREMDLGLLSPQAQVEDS
How it was run: as §1

FLT4/VEGFR3 = FLT4/VEGFR3 (Homo sapiens (Human), UniProt P35916); assay: Reaction Biology HotSpot kinase assay; type: biochemical; conditions: 500 nM compound; read-out: Percentage kinase inhibition FLT4/VEGFR3
How it was run: as §2

KDR/VEGFR2 = KDR/VEGFR2 (Homo sapiens (Human), UniProt P35968); assay: Reaction Biology HotSpot kinase assay; type: biochemical; conditions: 500 nM compound; read-out: Percentage kinase inhibition KDR/VEGFR2
How it was run: as §2

PDGFRa = PDGFRa (Homo sapiens (Human), UniProt P16234); assay: Reaction Biology HotSpot kinase assay; type: biochemical; conditions: 500 nM compound; read-out: Percentage kinase inhibition PDGFRa
How it was run: as §2

PKCa = PKCa (Homo sapiens (Human), UniProt P17252); assay: Reaction Biology HotSpot kinase assay; type: biochemical; conditions: 500 nM compound; read-out: Percentage kinase inhibition PKCa
How it was run: as §2

ROS/ROS1 = ROS/ROS1 (Homo sapiens (Human), UniProt P08922); assay: Reaction Biology HotSpot kinase assay; type: biochemical; conditions: 500 nM compound; read-out: Percentage kinase inhibition ROS/ROS1
How it was run: as §2

TIE2/TEK = TIE2/TEK (Homo sapiens (Human), UniProt Q02763); assay: Reaction Biology HotSpot kinase assay; type: biochemical; conditions: 500 nM compound; read-out: Percentage kinase inhibition TIE2/TEK
How it was run: as §2

TRKB = TRKB (Homo sapiens (Human), UniProt Q16620); assay: Reaction Biology HotSpot kinase assay; type: biochemical; conditions: 500 nM compound; read-out: Percentage kinase inhibition TRKB
How it was run: as §2

YES/YES1 = YES/YES1 (Homo sapiens (Human), UniProt P07947); assay: Reaction Biology HotSpot kinase assay; type: biochemical; conditions: 500 nM compound; read-out: Percentage kinase inhibition YES/YES1
How it was run: as §2

c-MER = c-MER (Homo sapiens (Human), UniProt Q12866); assay: Reaction Biology HotSpot kinase assay; type: biochemical; conditions: 500 nM compound; read-out: Percentage kinase inhibition c-MER
How it was run: as §2

c-Met = c-Met (Homo sapiens (Human), UniProt P08581); assay: Reaction Biology HotSpot kinase assay; type: biochemical; conditions: 500 nM compound; read-out: Percentage kinase inhibition c-Met
Sequence of c-Met (P08581 25-1390): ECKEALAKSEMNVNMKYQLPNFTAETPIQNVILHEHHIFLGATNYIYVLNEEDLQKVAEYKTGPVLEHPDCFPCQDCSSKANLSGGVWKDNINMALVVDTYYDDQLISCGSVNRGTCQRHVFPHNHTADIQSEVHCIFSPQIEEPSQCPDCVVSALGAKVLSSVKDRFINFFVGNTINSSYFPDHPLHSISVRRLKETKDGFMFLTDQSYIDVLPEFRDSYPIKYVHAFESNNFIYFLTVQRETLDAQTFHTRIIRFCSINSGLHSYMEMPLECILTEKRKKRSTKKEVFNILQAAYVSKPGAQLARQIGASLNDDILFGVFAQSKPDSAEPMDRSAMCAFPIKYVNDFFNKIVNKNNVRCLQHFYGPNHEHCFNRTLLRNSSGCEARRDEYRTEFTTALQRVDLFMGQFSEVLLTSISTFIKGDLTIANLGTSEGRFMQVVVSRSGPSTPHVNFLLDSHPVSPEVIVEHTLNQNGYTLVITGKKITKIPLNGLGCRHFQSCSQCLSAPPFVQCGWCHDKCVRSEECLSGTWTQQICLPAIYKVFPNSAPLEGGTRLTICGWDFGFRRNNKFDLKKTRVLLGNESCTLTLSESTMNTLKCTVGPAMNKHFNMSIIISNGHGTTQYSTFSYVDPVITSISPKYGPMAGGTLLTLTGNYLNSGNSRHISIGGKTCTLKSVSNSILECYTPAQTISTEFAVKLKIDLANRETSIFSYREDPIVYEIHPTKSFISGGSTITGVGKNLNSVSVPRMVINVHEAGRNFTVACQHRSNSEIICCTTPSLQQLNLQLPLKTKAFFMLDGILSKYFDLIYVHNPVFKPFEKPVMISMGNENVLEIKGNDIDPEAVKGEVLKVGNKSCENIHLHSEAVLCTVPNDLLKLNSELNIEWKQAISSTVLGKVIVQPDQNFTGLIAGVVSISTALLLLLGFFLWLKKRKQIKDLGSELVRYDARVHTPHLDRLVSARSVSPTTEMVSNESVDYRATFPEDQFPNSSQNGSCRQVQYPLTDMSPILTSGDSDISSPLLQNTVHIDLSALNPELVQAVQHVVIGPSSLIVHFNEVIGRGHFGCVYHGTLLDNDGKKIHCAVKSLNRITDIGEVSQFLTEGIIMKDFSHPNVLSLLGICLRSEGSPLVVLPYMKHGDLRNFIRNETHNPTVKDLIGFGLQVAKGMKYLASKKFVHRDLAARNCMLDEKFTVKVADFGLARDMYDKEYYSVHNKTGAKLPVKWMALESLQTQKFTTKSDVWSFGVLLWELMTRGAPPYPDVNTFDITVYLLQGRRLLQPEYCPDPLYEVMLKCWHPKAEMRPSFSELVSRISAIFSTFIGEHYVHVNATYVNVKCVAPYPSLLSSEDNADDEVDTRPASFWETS
How it was run: as §2

MOLM14 = assay: IC50 determination (proliferation assay, CellTiter-Blue); type: cell-based
How it was run: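 MOLM14 and MV4-11 cells seeded about 18 h before compound addition (DMSO-diluted), then 72 h exposure.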

**Q.** What does the source list for `Cc1ccc(C(=O)Nc2ccc(CN3CCN(C)CC3)c(C(F)(F)F)c2)cc1C#Cc1cnc(N)c2ncccc12` [HSN356, 3-((8-amino-1,7-naphthyridin-5-yl)ethynyl)-4-methyl-N-(4-((4-methylpiperazin-1-yl)methyl)-3-(trifluoromethyl)phenyl)benzamide]?
**A.** inhibition at 0.5 µM (AKT1): 0%; inhibition at 0.5 µM (ALK): 0%; inhibition at 0.5 µM (AXL): 4%; inhibition at 0.5 µM (BRAF): 100%; inhibition at 0.5 µM (BTK): 65%; inhibition at 0.5 µM (EGFR): 59%; inhibition at 0.5 µM (EPHA5): 96%; inhibition at 0.5 µM (EPHB2): 100%; inhibition at 0.5 µM (ERBB2/HER2): 64%; inhibition at 0.5 µM (FGFR1): 96%; inhibition at 0.5 µM (FGR): 99%; inhibition at 0.5 µM (FLT1/VEGFR1): 94%; % inhibition of FLT3 activity (FLT3): 99%; inhibition at 0.5 µM (FLT3; read-out: % inhibition of FLT3 activity): 98%; inhibition at 0.5 µM (FLT4/VEGFR3): 94%; inhibition at 0.5 µM (KDR/VEGFR2): 97%; inhibition at 0.5 µM (PDGFRa): 92%; inhibition at 0.5 µM (PKCa): 0%; inhibition at 0.5 µM (ROS/ROS1): 0%; inhibition at 0.5 µM (TIE2/TEK): 100%; inhibition at 0.5 µM (TRKB): 75%; inhibition at 0.5 µM (YES/YES1): 100%; inhibition at 0.5 µM (c-MER): 0%; inhibition at 0.5 µM (c-Met): 15%; proliferation inhibition in words, MOLM-14 (MOLM14): potent proliferation inhibitors; IC50 (MOLM14; Homo sapiens, MOLM-14): 0.62 ± 0.02 nM

Source: patent publication US20250084039A1, “4-SUBSTITUTED AMINOISOQUINOLINE DERIVATIVES” (Purdue Research Foundation, priority 2016, published 2025)
